Experimental data as given in patent US10556936B2, “Immunogenic proteins and fragments thereof from allergenic mites” (ALK-ABELLÓ A/S, priority 2016, dated 2020).

System: HDM-specific T cells expanded from PBMCs of HDM-allergic individuals
Experiment: T cell reactivity of peptides: IFN/IL-5 ELISPOT on in vitro expanded HDM-specific T cells
Format: cell-based, human
Settings: for SFC/donor: individual peptides 10 μg/mL; for % responder: percentage of donors that produced a response against the peptide, 10 μg/mL
Experimental: Each sequence of an “L” cluster was aligned separately using the MEGA software tool with ClustalW. Fifteen-mer peptides overlapping by 10 amino acids were generated and the last 15-mer peptide was added when the sequence length was not divisible by 5, 14,783 unique peptides remained.
HLA class II binding predictions optimized for global coverage were performed for the seven class II alleles (HLA-DRB1*03:01, HLA-DRB1*07:01, HLA-DRB1*15:01, HLA-DRB3*01:01, HLA-DRB3*02:02, HLA-DRB4*01:01 and HLA-DRB5*01:01) using the standalone version of the IEDB class II binding prediction tool. The median consensus percentile rank was estimated from the consensus percentile ranks for the seven alleles. Further, peptides with more than ten overlapping amino acids, which appeared because several occurrences of some sequence regions were repeated multiple times in the same sequence, were eliminated (e.g. “[…]” was repeated seven times in one sequence.) Variant peptides were also removed, retaining the better peptide based on the median consensus percentile rank and conservation among the sequences within its respective cluster. Peptides with median consensus percentile rank ≤10.0 and conserved in ≥35% of sequences in the same cluster were finally selected, also including additional selected peptides chosen to maximize DRB1 allele coverage, for a grand total of 2,589 peptides.
Peptides were purchased from Mimotopes (Clayton, Victoria, Australia) or A and A (San Diego, Calif.) as crude material on a small (1-mg) scale. Individual peptides were resuspended in DMSO at a final concentration of 40 mg/mL. Peptide “megapools” of 30-65 peptides/pool were generated. Following lyophilization, each pool was reconstituted in DMSO so that each peptide was present at a concentration of 4 mg/mL. To facilitate deconvolution of positive megapools, each megapool was further broken down in 2-6 “mesopools” (259 mesopools in total), each containing 8-14 peptides. Each mesopool was then deconvoluted to identify individual positive peptides. To avoid dimerization and polymerization of peptides by intra- and intermolecular disulfide bond formation between cysteine residues, this amino acid were in some instances substituted by a serine residue in the peptides. Such peptides are herein marked with an asterisk (*).
PBMCs from European HDM-allergic individuals were recruited in the Copenhagen region (defined by clinical history of allergy to house dust mite and specific IgE to group 1 and group 2 major allergens from Der p and/or Der f and with measured specific IgE (CAP) >0.7 kU/L towards Der p/f 1 or Der p/f 2. In addition, PBMCs from 10 US HDM-allergic individuals were recruited in San Diego (defined by Der p extract IgE titers greater than 0.35 kUA/L). PBMCs were isolated from whole blood by density gradient centrifugation according to manufacturers' instructions (Ficoll-Hypaque, Amersham Biosciences, Uppsala, Sweden). Der p- and Der f-specific extract IgE titers were determined using the ImmunoCAP system (Thermo Fisher, Uppsala, Sweden). In a separate series of experiments, pooled plasma from 10 European and 10 American HDM atopic individuals from the San Diego region, respectively, was utilized to run 2D immunoblots to elucidate IgE and IgG reactivity towards the proteins, which had at least one peptide with positive T cell response.
HDM-specific T cells were expanded in vitro. Briefly, PBMCs from HDM-allergic individuals were stimulated with HDM extract (5 μg/mL) and expanded over 14-17 days with IL-2 (added every 3 days). Cells were harvested on day 14, restimulated with HDM extract (5 μg/mL), individual peptides (10 μg/mL) or peptide pools (5 μg/mL) and screened for […]/IL-5-production by ELISPOT. Criteria for positivity were 100 or 20 spot forming cells (SFCs) per 10^6 PBMCs for peptide pools or single peptides, respectively, p<0.05, and a stimulation index >2.

Row | Substance | SFC/donor | % responder
1 | 45 (IMRILCCKSRKVAPC; Immunogenic fragment) [compound 45] | 4 SFC/donor | 5%
2 | 46 (FNYLPVDVQEELRNT; Immunogenic fragment) [compound 46] | 7 SFC/donor | 5%
3 | 47 (ELLKKKGIIPGIKVD; Immunogenic fragment) [compound 47] | 12 SFC/donor | 5%
4 | 48 (EQYISGVILFDETVY; Immunogenic fragment) [compound 48] | 326 SFC/donor | 20%
5 | 49 (KGIIPGIKVDTGVVT; Immunogenic fragment) [compound 49] | 83 SFC/donor | 10%
6 | 50 (FIMLKPDAVQRGIVG; Immunogenic fragment) [compound 50] | 7 SFC/donor | 5%
7 | 51 (RGIVGEIIRRFEAKG; Immunogenic fragment) [compound 51] | 5 SFC/donor | 5%
8 | 52 (EIIRRFEAKGFKLVA; Immunogenic fragment) [compound 52] | 40 SFC/donor | 5%
9 | 53 (FEAKGFKLVAMKFMM; Immunogenic fragment) [compound 53] | 7 SFC/donor | 5%
10 | 54 (FKLVAMKFMMASEDL; Immunogenic fragment) [compound 54] | 6 SFC/donor | 5%
11 | 55 (KFMMASEDLLKKHYA; Immunogenic fragment) [compound 55] | 5 SFC/donor | 5%
12 | 56 (LKKHYADLAARPFFP; Immunogenic fragment) [compound 56] | 8 SFC/donor | 5%
13 | 57 (WEGLNAVKTGRVMLG; Immunogenic fragment) [compound 57] | 5 SFC/donor | 5%
14 | 58 (ITRLREAMGVMQHHD; Immunogenic fragment) [compound 58] | 8 SFC/donor | 5%
15 | 59 (GTEKQHVAFNYAKML; Immunogenic fragment) [compound 59] | 80 SFC/donor | 5%
16 | 60 (HVAFNYAKMLDSAML; Immunogenic fragment) [compound 60] | 75 SFC/donor | 5%
17 | 61 (AMLQCRHVISESYRK; Immunogenic fragment) [compound 61] | 5 SFC/donor | 5%
18 | 62 (RHIINESYKKLLPKS; Immunogenic fragment) [compound 62] | 4 SFC/donor | 5%
19 | 63 (EFCPYLNISSCPSTE; Immunogenic fragment) [compound 63] | 7 SFC/donor | 10%
20 | 64 (LYNPLGHRLINHTVR; Immunogenic fragment) [compound 64] | 6 SFC/donor | 5%
21 | 65 (LISIPEFVRKIPGRK; Immunogenic fragment) [compound 65] | 6 SFC/donor | 5%
22 | 66 (IVQEVHQQFDSFVGQ; Immunogenic fragment) [compound 66] | 6 SFC/donor | 5%
23 | 67 (LMVHRRLLHDDYFGV; Immunogenic fragment) [compound 67] | 2 SFC/donor | 5%
24 | 68 (DGHGIVIRGRHLLLL; Immunogenic fragment) [compound 68] | 24 SFC/donor | 5%
25 | 69 (EPIISFTSIESNKQA; Immunogenic fragment) [compound 69] | 112 SFC/donor | 5%
26 | 70 (HSKRYLLRLEHFYQR; Immunogenic fragment) [compound 70] | 5 SFC/donor | 5%

Row | Substance | SFC/donor | % responder
27 | 71 (LLRLEHFYQRFEDPS; Immunogenic fragment) [compound 71] | 8 SFC/donor | 5%
28 | 72 (KRYLLRLEHFYQSNE; Immunogenic fragment) [compound 72] | 4 SFC/donor | 5%
29 | 73 (TLEQWHSKRYLLRLE; Immunogenic fragment) [compound 73] | 4 SFC/donor | 5%
30 | 74 (TVSLRHLFQSFEITA; Immunogenic fragment) [compound 74] | 25 SFC/donor | 5%
31 | 75 (SLRHLFKSFEIIAVE; Immunogenic fragment) [compound 75] | 6 SFC/donor | 5%
32 | 76 (FKSFEIIAVEELTLG; Immunogenic fragment) [compound 76] | 8 SFC/donor | 5%
33 | 77 (ANQPISSLKNRLHYR; Immunogenic fragment) [compound 77] | 4 SFC/donor | 5%
34 | 78 (ELTLGANQPISSLKN; Immunogenic fragment) [compound 78] | 6 SFC/donor | 5%
35 | 79 (GNDLKNLSSKVLPNL; Immunogenic fragment) [compound 79] | 5 SFC/donor | 5%
36 | 80 (NLSSKVLPNLNVPYC; Immunogenic fragment) [compound 80] | 4 SFC/donor | 5%
37 | 81 (DDGNLISRALPHLGV; Immunogenic fragment) [compound 81] | 8 SFC/donor | 5%
38 | 82 (YIGYKIEKHSKNLIQ; Immunogenic fragment) [compound 82] | 4 SFC/donor | 5%
39 | 83 (DLSMTKLKRVRPSGF; Immunogenic fragment) [compound 83] | 4 SFC/donor | 5%
40 | 84 (IHQLNDQVLRLKFID; Immunogenic fragment) [compound 84] | 3 SFC/donor | 5%
41 | 85 (DQVLRLKFIDANQKR; Immunogenic fragment) [compound 85] | 222 SFC/donor | 20%
42 | 86 (RLYSVELDGSHLIVR; Immunogenic fragment) [compound 86] | 3 SFC/donor | 5%
43 | 87 (QSIFDINLAYMVYSD; Immunogenic fragment) [compound 87] | 69 SFC/donor | 20%
44 | 88 (MVYSDQLIHVTSRLP; Immunogenic fragment) [compound 88] | 3 SFC/donor | 5%
45 | 89 (RAPFRKNTNWKRYTQ; Immunogenic fragment) [compound 89] | 9 SFC/donor | 5%
46 | 90 (TKLASGVFLFNSNAM; Immunogenic fragment) [compound 90] | 11 SFC/donor | 5%
47 | 91 (GVFLFNSNAMDILTQ; Immunogenic fragment) [compound 91] | 9 SFC/donor | 5%
48 | 92 (GPKPEQVVQQYHNLI; Immunogenic fragment) [compound 92] | 1 SFC/donor | 5%
49 | 93 (QVVQQYHNLIGLPAM; Immunogenic fragment) [compound 93] | 11 SFC/donor | 10%
50 | 94 (FTNLNTTYTRNRAVG; Immunogenic fragment) [compound 94] | 94 SFC/donor | 15%
51 | 95 (TTYTRNRAVGIPMDV; Immunogenic fragment) [compound 95] | 77 SFC/donor | 15%
52 | 96 (LPDFIRNVLHKNGQK; Immunogenic fragment) [compound 96] | 5 SFC/donor | 10%
